Reference: PubChem BioAssay AID248 (DTP/NCI, 2004)
Several values for one entry are separate records, joined by “and”; a condition that tells them apart may be missing. Identical values can stand only once. Toxic doses and inconclusive results are not listed. No stated cut-off is given here; in the data, active means T/C of 150% or more; inactive means T/C below 125%.

Tested on: L1210 leukemia ip in BDF1 mice, survival T/C
Experiment: NCI In Vivo Anticancer Drug Screen. Data for tumor model L1210 Leukemia (intraperitoneal) in B6D2F1 (BDF1) mice
Conditions: higher = longer survival
Summary of the method: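 Value reflects the ratio of survival in compound-treated mice to survival in vehicle-treated controls, with both groups carrying the same transplanted tumor.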

[1] = endpoint: mean survival time, dose: 100.0 mg/kg/injection, schedule: Q04DX003 (ip), vehicle: Klucel (hydroxypropylcellulose) (HPC)
[2] = endpoint: mean survival time, dose: 200.0 mg/kg/injection, schedule: Q04DX003 (ip), vehicle: Klucel (hydroxypropylcellulose) (HPC)
[3] = endpoint: mean survival time, dose: 400.0 mg/kg/injection, schedule: Q04DX003 (ip), vehicle: Klucel (hydroxypropylcellulose) (HPC)
[4] = endpoint: mean survival time, dose: 100.0 mg/kg/injection, schedule: Q01DX009 (ip), vehicle: Klucel (hydroxypropylcellulose) (HPC)
[5] = endpoint: mean survival time, dose: 200.0 mg/kg/injection, schedule: Q01DX009 (ip), vehicle: Klucel (hydroxypropylcellulose) (HPC)
[6] = endpoint: mean survival time, dose: 400.0 mg/kg/injection, schedule: Q01DX009 (ip), vehicle: Klucel (hydroxypropylcellulose) (HPC)

Measured: T/C

Cc1ccccc1OCC(=O)Nc1cccc(NC(=O)COc2ccccc2C)c1
inactive: endpoint: mean survival time, dose: 50.0 mg/kg/injection, schedule: Q04DX002 (sc), vehicle: olive oil, sesame oil, peanut oil 110 % of control | endpoint: mean survival time, dose: 100.0 mg/kg/injection, schedule: Q04DX002 (sc), vehicle: olive oil, sesame oil, peanut oil 100 % of control | endpoint: mean survival time, dose: 200.0 mg/kg/injection, schedule: Q04DX002 (sc), vehicle: olive oil, sesame oil, peanut oil 95 % of control

CSc1ncnc2nc[nH]c12
inactive: endpoint: mean survival time, dose: 1.5 mg/kg/injection, schedule: Q01DX Z (ip), vehicle: saline 95 % of control | endpoint: mean survival time, dose: 3.0 mg/kg/injection, schedule: Q01DX Z (ip), vehicle: saline 95 % of control | endpoint: mean survival time, dose: 6.0 mg/kg/injection, schedule: Q01DX Z (ip), vehicle: saline 103 % of control | endpoint: mean survival time, dose: 12.0 mg/kg/injection, schedule: Q01DX Z (ip), vehicle: saline 95 % of control | endpoint: mean survival time, dose: 12.5 mg/kg/injection, schedule: Q#A X Z (ip), vehicle: saline 108 % of control | endpoint: mean survival time, dose: 25.0 mg/kg/injection, schedule: Q01DX006 (iv), vehicle: saline 103 % of control | endpoint: mean survival time, dose: 25.0 mg/kg/injection, schedule: Q01DX009 (ip), vehicle: saline 97 % of control | endpoint: mean survival time, dose: 25.0 mg/kg/injection, schedule: Q01DX010 (ip), vehicle: saline 92 % of control | endpoint: mean survival time, dose: 25.0 mg/kg/injection, schedule: Q01DX Z (im), vehicle: methylcellulose (MC) 94 % of control | endpoint: mean survival time, dose: 25.0 mg/kg/injection, schedule: Q01DX Z (ip), vehicle: saline 101 % of control | endpoint: mean survival time, dose: 25.0 mg/kg/injection, schedule: Q01DX Z (sc), vehicle: methylcellulose (MC) 117 % of control | endpoint: mean survival time, dose: 25.0 mg/kg/injection, schedule: Q#A X Z (ip), vehicle: saline 103 % of control | endpoint: mean survival time, dose: 30.0 mg/kg/injection, schedule: Q01DX015 (ip), vehicle: carboxymethylcellulose (CMC) 114 % of control | endpoint: mean survival time, dose: 45.0 mg/kg/injection, schedule: Q01DX015 (ip), vehicle: carboxymethylcellulose (CMC) 104 % of control | endpoint: mean survival time, dose: 50.0 mg/kg/injection, schedule: Q01DX006 (iv), vehicle: saline 100 % of control | endpoint: mean survival time, dose: 50.0 mg/kg/injection, schedule: Q01DX009 (ip), vehicle: saline 102 % of control and 104 % of control | endpoint: mean survival time, dose: 50.0 mg/kg/injection, schedule: Q01DX010 (ip), vehicle: saline 89 % of control | endpoint: mean survival time, dose: 50.0 mg/kg/injection, schedule: Q01DX Z (im), vehicle: methylcellulose (MC) 107 % of control | endpoint: mean survival time, dose: 50.0 mg/kg/injection, schedule: Q01DX Z (ip), vehicle: saline 105 % of control | endpoint: mean survival time, dose: 50.0 mg/kg/injection, schedule: Q01DX Z (sc), vehicle: methylcellulose (MC) 96 % of control | endpoint: mean survival time, dose: 50.0 mg/kg/injection, schedule: Q#A X Z (ip), vehicle: saline 112 % of control | endpoint: mean survival time, dose: 60.0 mg/kg/injection, schedule: Q01DX015 (ip), vehicle: carboxymethylcellulose (CMC) 114 % of control | endpoint: mean survival time, dose: 75.0 mg/kg/injection, schedule: Q01DX015 (ip), vehicle: carboxymethylcellulose (CMC) 108 % of control | endpoint: mean survival time, dose: 75.0 mg/kg/injection, schedule: Q03DX Z (ip), vehicle: saline 100 % of control | endpoint: mean survival time, dose: 90.0 mg/kg/injection, schedule: Q01DX015 (ip), vehicle: carboxymethylcellulose (CMC) 109 % of control | endpoint: mean survival time, dose: 100.0 mg/kg/injection, schedule: Q01DX006 (iv), vehicle: saline 108 % of control | endpoint: mean survival time, dose: 100.0 mg/kg/injection, schedule: Q01DX009 (ip), vehicle: saline 102 % of control and 103 % of control | endpoint: mean survival time, dose: 100.0 mg/kg/injection, schedule: Q01DX010 (ip), vehicle: saline 95 % of control and 87 % of control | endpoint: mean survival time, dose: 100.0 mg/kg/injection, schedule: Q01DX Z (im), vehicle: methylcellulose (MC) 89 % of control | endpoint: mean survival time, dose: 100.0 mg/kg/injection, schedule: Q01DX Z (ip), vehicle: saline 111 % of control | endpoint: mean survival time, dose: 100.0 mg/kg/injection, schedule: Q01DX Z (sc), vehicle: methylcellulose (MC) 113 % of control | endpoint: mean survival time, dose: 120.0 mg/kg/injection, schedule: Q01DX001 (ip), vehicle: carboxymethylcellulose (CMC) 95 % of control and 100 % of control | endpoint: mean survival time, dose: 125.0 mg/kg/injection, schedule: Q01DX001 (ip), vehicle: methylcellulose (MC) 105 % of control and 108 % of control | endpoint: mean survival time, dose: 150.0 mg/kg/injection, schedule: Q03DX Z (ip), vehicle: saline 101 % of control | endpoint: mean survival time, dose: 180.0 mg/kg/injection, schedule: Q01DX001 (ip), vehicle: carboxymethylcellulose (CMC) 102 % of control and 106 % of control | endpoint: mean survival time, dose: 200.0 mg/kg/injection, schedule: Q01DX006 (iv), vehicle: saline 97 % of control | endpoint: mean survival time, dose: 200.0 mg/kg/injection, schedule: Q01DX009 (ip), vehicle: saline 97 % of control and 100 % of control | endpoint: mean survival time, dose: 200.0 mg/kg/injection, schedule: Q01DX010 (ip), vehicle: saline 105 % of control | endpoint: mean survival time, dose: 200.0 mg/kg/injection, schedule: Q01DX Z (im), vehicle: methylcellulose (MC) 102 % of control | endpoint: mean survival time, dose: 200.0 mg/kg/injection, schedule: Q01DX Z (ip), vehicle: saline 105 % of control | endpoint: mean survival time, dose: 200.0 mg/kg/injection, schedule: Q01DX Z (sc), vehicle: methylcellulose (MC) 112 % of control | endpoint: mean survival time, dose: 250.0 mg/kg/injection, schedule: Q01DX001 (ip), vehicle: methylcellulose (MC) 106 % of control and 108 % of control | endpoint: mean survival time, dose: 270.0 mg/kg/injection, schedule: Q01DX001 (ip), vehicle: carboxymethylcellulose (CMC) 103 % of control and 117 % of control | endpoint: mean survival time, dose: 300.0 mg/kg/injection, schedule: Q03DX Z (ip), vehicle: saline 100 % of control | endpoint: mean survival time, dose: 500.0 mg/kg/injection, schedule: Q01DX001 (ip), vehicle: methylcellulose (MC) 116 % of control | endpoint: mean survival time, dose: 1000.0 mg/kg/injection, schedule: Q01DX001 (ip), vehicle: methylcellulose (MC) 112 % of control | endpoint: median survival time, dose: 25.0 mg/kg/injection, schedule: Q01DX009 (ip), vehicle: saline 100 % of control | endpoint: median survival time, dose: 50.0 mg/kg/injection, schedule: Q01DX009 (ip), vehicle: saline 95 % of control and 106 % of control | endpoint: median survival time, dose: 100.0 mg/kg/injection, schedule: Q01DX009 (ip), vehicle: saline 100 % of control and 106 % of control | endpoint: median survival time, dose: 200.0 mg/kg/injection, schedule: Q01DX009 (ip), vehicle: saline 100 % of control and 115 % of control

CC(C)NC(=O)OC(C)C
inactive: [1] 96 % of control | [2] 104 % of control | [3] 98 % of control

O=C(Nc1ccccc1Cl)Oc1ccc(-c2ccccc2)cc1Br
inactive: [4] 102 % of control | [1] 94 % of control | [5] 96 % of control | [2] 96 % of control | [6] 104 % of control | [3] 102 % of control

OCCCCCCCCCCO
inactive: endpoint: mean survival time, dose: 100.0 mg/kg/injection, schedule: Q01DX009 (ip), vehicle: carboxymethylcellulose (CMC) 104 % of control | endpoint: mean survival time, dose: 200.0 mg/kg/injection, schedule: Q01DX009 (ip), vehicle: carboxymethylcellulose (CMC) 106 % of control | endpoint: mean survival time, dose: 400.0 mg/kg/injection, schedule: Q01DX009 (ip), vehicle: carboxymethylcellulose (CMC) 98 % of control

OCC1OC(c2ccccc2)OC2C(CO)OC(c3ccccc3)OC12 (stereo not drawn)
inactive: endpoint: mean survival time, dose: 100.0 mg/kg/injection, schedule: Q04DX003 (ip), vehicle: saline with Tween-80 93 % of control | endpoint: mean survival time, dose: 200.0 mg/kg/injection, schedule: Q04DX003 (ip), vehicle: saline with Tween-80 96 % of control | endpoint: mean survival time, dose: 400.0 mg/kg/injection, schedule: Q04DX003 (ip), vehicle: saline with Tween-80 89 % of control

C=CCc1cc(CN(CCO)Cc2cc(CC=C)cc(OC)c2O)c(O)c(OC)c1
inactive: endpoint: mean survival time, dose: 12.5 mg/kg/injection, schedule: Q04DX003 (ip), vehicle: Klucel (hydroxypropylcellulose) (HPC) 95 % of control | endpoint: mean survival time, dose: 25.0 mg/kg/injection, schedule: Q04DX003 (ip), vehicle: Klucel (hydroxypropylcellulose) (HPC) 101 % of control | endpoint: mean survival time, dose: 50.0 mg/kg/injection, schedule: Q04DX003 (ip), vehicle: Klucel (hydroxypropylcellulose) (HPC) 95 % of control

COc1cc(Cc2nccc3ccccc23)cc([N+](=O)[O-])c1OC
inactive: endpoint: mean survival time, dose: 50.0 mg/kg/injection, schedule: Q04DX002 (ip), vehicle: saline with Tween-80 97 % of control | endpoint: mean survival time, dose: 100.0 mg/kg/injection, schedule: Q04DX002 (ip), vehicle: saline with Tween-80 93 % of control | endpoint: mean survival time, dose: 200.0 mg/kg/injection, schedule: Q04DX002 (ip), vehicle: saline with Tween-80 90 % of control | endpoint: mean survival time, dose: 400.0 mg/kg/injection, schedule: Q04DX002 (ip), vehicle: saline with Tween-80 87 % of control

CC1=CCCC(C)(C)C1/C=C/C(=O)O (stereo not drawn)
inactive: [4] 105 % of control | [5] 97 % of control | [6] 101 % of control
